Data on 2 molecules can be found in US20220133697A1, “INJECTABLE FORMULATIONS” (Aldeyra Therapeutics, Inc., priority 2018, published 2022).

Data set [1] has as its system endotoxin induced uveitis. Kind of data set: rat model of endotoxin induced uveitis, ocular exam scores. Format: in vivo, female Lewis rats. Conditions: for retina-choroid scores, within-subject statistical analysis (treatment and time): IVT treatment, compared to vehicle control. As for the experimental part:
(§1) An in vivo study was conducted to assess the efficacy of intravitreal administration of Compound I-5 and I-22 in a rat model of endotoxin induced uveitis, one of the most appropriate models for the study of non-infectious uveitis (NIU) (Smith et al., 1998, Immunol Cell Biol. 76(6):497-512) (Toxikon Study 16-04078-N1). Ocular inflammation was induced in female Lewis rats (n=10/group) by a single, foot pad injection of lipopolysaccharide (LPS) (100 μL) (Herbort et al., 1988, Graefes Arch Clin Exp Ophthalmol. 226(6):553-8). Compound I-5 or I-22 (50 μg) was topically administered (TO) to the eye at hours 1, 3, 7, 10, and 17, after LPS induction, or by a single intravitreal (IVT) injection (25 μg) 1 hour after LPS induction (n=10 per group). Ocular exams were performed six and 24 hours after LPS injection. Anterior segments were scored using a combined Draize and McDonald-Shattuck scoring system, and posterior segments were scored using 0 to 1 (vitreous, optic disc, retinal vasculature) and 0 to 4 (retinal and choroidal hemorrhage, exudation, and detachment) scales. Statistical significance from vehicle control was determined by ANOVA, followed by Tukey's post hoc test. The test compound, e.g., Compound I-22 (5 mg/mL), was administered intravitreally into each eye (25 μg/eye) within one hour of LPS administration. Balanced salt solution (BSS) served as a vehicle control. Retinal exams were performed prior to study start and six and 24 hours following LPS administration and scored using a Combined Draize and McDonald Shadduck scoring system, based on assessments of: (a) Retinal vasculopathy; (2) Retinal hemorrhage, exudate or detachment; and (3) Retinal hemorrhage, exudate or detachment.

In the next data set the test system is MDA adducts. Kind of data set: MDA adducts in the LPS-induced uveitis model. The format is in vivo, female Lewis rats. The note with it: after TO and IVT administration; data not shown. Here is the method: as §1, with “Compound I-5 or I-22 (50 μg) was topically administered (TO) to the eye at hours 1, 3, 7, 10, and 17, after LPS induction, or by a single intravitreal (IVT) injection (25 μg) 1 hour after LPS induction (n=10 per group). Ocular exams were performed six and 24 hours after LPS injection.” left out, “The test compound, e.g., Compound I-22 (5 mg/mL), was administered intravitreally into each eye (25 μg/eye) within one hour of LPS administration. Balanced salt solution (BSS) served as a vehicle control.” left out

For the next data set, the system named is A2E. Kind of data set: A2E formation in retinas of abcr-/- mouse knockout model of macular degeneration. Format: in vivo, mice. Conditions: 10 mg/kg intraperitoneally daily for 56 days, HPLC, compared with vehicle controls. Here is the method: (§2) A mouse knockout model (abcr−/−) of macular degeneration (MD) was used to test the activities of Compound I-5 and Compound I-22. The retinal transport protein, ABCA4, is not expressed in these mice, allowing retinaldehdye to escape the light cycle and form a toxic metabolite with phosphatidylethanolamine, N-retinylidene-phosphatidylethanolamine (A2E). Mice were treated intraperitoneally (IP) for 56 days with 10 mg/kg Compound I-5 (n=24), Compound I-22 (n=24), or vehicle (n=22), starting at week 10 to 12 of life. An untreated control group (n=12) was sacrificed on the first day of dosing. After treatment, A2E concentrations in retinas were measured by HPLC. Statistical significance from vehicle control was determined by t-test.

The nature of data set [2]: dark adaptation, separate study. The format is in vivo. Conditions: systemic (IP) doses 5-fold greater than the effective dose in the A2E study, 56 days; data not shown.
Data set [3] in a line: body weight and adverse effects during 56 days daily treatment in the abcr-/- mouse study. The format is in vivo, mice. Conditions: daily treatment for 56 days. As for the experimental part: as §2
A further data set has as its system diabetic macular edema. The data set is described as follows: rat model of diabetic macular edema (STZ-induced diabetes), retinal histology scores. Format: in vivo. As for the experimental part: To assess the effect of Compound I-22 in a rat model of diabetic macular edema (DME), Type 1 diabetes was induced in male brown Norway rats by intraperitoneal administration of streptozotocin (STZ; 55 mg/kg). Forty days after STZ administration, animals were tested for diabetes by testing blood glucose levels.
Animals with diabetes were assigned to groups of ten, to receive either vehicle (HPβCD) or Compound I-22. […] On Day 41 (about Week 6) after STZ induction, animals received a single intravitreal injection of Compound I-22 (3.5 μL; 17.5 μg) or vehicle per eye. On Day 57 (about Week 8) after STZ induction, animals received a second intravitreal injection of Compound I-22 or vehicle.
On Day 70 (about Week 10) after STZ induction, animals were euthanized and retinas were processed for histological examination. Sections (3 to 5 μm) were stained with hematoxylin and eosin and evaluated by light microscopy. Changes in retinal thickness were scored on a 0 to 4 scale, with 0 meaning no changes, 1 meaning minimal changes, 2 meaning mild changes, 3 meaning moderate changes, and 4 meaning severe changes, relative to non-diabetic controls. Six microscopic sections were examined for each eye, and retinas were also assessed and scored by a pathologist for changes in vascularity and neutrophil infiltration.

Setting [4] is: single intravitreal (IVT) injection 25 μg 1 hour after LPS, vs. vehicle.
Where [5] appears, read: topical (TO) 50 μg at hours 1, 3, 7, 10, 17 after LPS, at 6 hours and 24 hours, compared to vehicle.

Regarding `CC(C)(O)c1nc2ccc(Cl)cc2cc1N` [Compound I-5], the “retina-choroid scores, within-subject statistical analysis (treatment and time)” value in data set [1] is “significantly improved”. For the same molecule, the “ocular exam scores (total ocular, anterior chamber and retina-choroid inflammation)” value (“ocular exam scores” for short) in data set [1] (setting [4]) is “significantly improved”. Further, in data set [1] (setting [5]), the “ocular exam scores” value is listed as “significantly improved”. Also, the MDA adducts entry in the data set with MDA adducts is on record as “Small, although not significant, reductions”. In the data set with A2E, the “decrease in formation of A2E” value is 71%. Moreover, in data set [2], the “effect on dark adaptation” value is “no effect”. Besides, in data set [3], the drug-related adverse effects entry is listed as “nor were any drug-related adverse effects observed” and the “effect on body weight” value was “no effect”.
For the molecule `CC(C)(O)c1cc2oc(-c3ccccc3)nc2cc1N` [Compound I-22], in data set [1], the “retina-choroid scores, within-subject statistical analysis (treatment and time)” value is recorded as “significantly improved”. Moreover, the “ocular exam scores” value in data set [1] (setting [4]) and in data set [1] (setting [5]) was “significantly improved” throughout. In addition, the MDA adducts entry with MDA adducts is “Small, although not significant, reductions”. Further, in the data set on A2E, the “decrease in formation of A2E” value came to 69%. Besides, in data set [3], the drug-related adverse effects entry is reported as “nor were any drug-related adverse effects observed”. In data set [3], the “effect on body weight” value is on record as “no effect”. The “reduction in retinal vascularity compared to vehicle, statistical significance” value in the data set with diabetic macular edema (intravitreal 17.5 μg per eye on Day 41 and Day 57 after STZ, FIG. 10) is reported as “not statistically significant”. The “neutrophil infiltration (score 0 to 4)” value with diabetic macular edema (intravitreal 17.5 μg per eye on Day 41 and Day 57 after STZ, compared to vehicle, p<0.01) is recorded as “significant reduction”. Besides, in the data set on diabetic macular edema (intravitreal 17.5 μg per eye on Day 41 and Day 57 after STZ, compared to vehicle, p<0.05), the “decrease in retinal vascularity score” value is 36%. For the same molecule, the “retinal thickness (score 0 to 4)” value with diabetic macular edema (intravitreal 17.5 μg per eye on Day 41 and Day 57 after STZ, histology Day 70, p<0.01) was “significant reduction”. The “tolerability in the retina” value in the data set on diabetic macular edema (intravitreal injection, rat DME model) is recorded as “well tolerated”. For the same molecule, in the data set on diabetic macular edema (measured by retinal thickness, neutrophil infiltration and retinal vascular changes), the retinal inflammation entry is reported as “decreased”.
